Results taken from patent publication US20140127202A1, “ANTITUMOUR COMBINATIONS CONTAINING A VEGF INHIBITING AGENT AND IRINOTECAN” (Aventis Pharma S.A., priority 2007, published 2014).

Columns and labels:
[1] = Antitumor activity and toxicity in mice grafted subcutaneously with HCT116 human tumor fragments; format: in vivo; conditions: mouse, in vivo, iv; irinotecan alone, i.v. twice a day on days 12, 15, 18; read-out: maximum tolerated dose, total injected dose
Protocol: (§1) This effectiveness can be quantified, for example, by the log10 cell kill, which is determined according to the following equation:
(§2) log10 cell kill=T-C (days)/3.34×Td
(§3) in which T-C represents the delay in growth of the cells, which is the average time, in days, for the tumors of the treated group (T) and the tumors of the control group (C) to have reached a predetermined value (1 g for example), and Td represents the time, in days, necessary for the volume of the tumor to double in the control animals [T. H. Corbett et al., Cancer, 40, 2660.2680 (1977); F. M. Schabel et al., Cancer Drug Development, Part B, Methods in Cancer Research, 17, 3-51, New York, Academic Press Inc. (1979)]. A product is considered to be active if log10 cell kill is greater than or equal to 0.7. A product is considered to be very active if log10 cell kill is greater than 2.8.
(§4) The combination, used at its own maximum tolerated dose, in which each of the constituents is present at a dose generally less than or equal to its maximum tolerated dose, will show therapeutic synergy when the log10 cell kill is greater than the value of the log10 cell kill of the best constituent when it is administered alone, and in particular has a superiority of at least one log cell kill.
(§5) The effectiveness of the combinations on solid tumors can be determined experimentally in the following way:
(§6) The animals subjected to the experiment, generally mice, are grafted bilaterally, subcutaneously, with 30 to 60 mg of an HCT116 human tumor fragment (Brattain, M. G., Fine, W. D., Khaled, F. M., Thompson, J. and Brattain, D. E., Heterogeneity of malignant cells from a human colonic carcinoma. Cancer Res., 1981, 41, 1751-1756) on day 0. The animals bearing the tumors are randomized before being subjected to the various treatments and controls. In the case of treatment of tumors of the present invention, the tumors were allowed to develop to a size of between 48 and 294 mg, which made it possible to have a median tumor per group of between 129 and 162 mg. […] Animals bearing tumors were also subjected to the same treatments with the excipient alone in order to be able to dissociate the toxic effect of the excipient from the actual effect of the chemotherapy on the tumor. The chemotherapy was begun on day 12 after the tumor graft. The VEGF Trap injections were given subcutaneously simultaneously with the irinotecan injections, which themselves were given intravenously, according to a daily double injection. These injections were carried out on days 12, 15 and 18 after implantation of the tumor. The various groups of animals are weighed three to four times per week until the maximum weight loss is reached, and then the groups are weighed at least once a week until the end of the trial.
(§7) The tumors are measured two or three times a week until the tumor reaches approximately 2 g or until the death of the animal if the latter occurs before the tumor reaches 2 g. The animals are autopsied at the time of sacrifice.
(§8) The antitumor activity is determined according to the various parameters recorded.
(§9) Vials of 1 cm^3 containing 25 mg of VEGF Trap which are diluted in a buffer of 5 mM phosphate, 5 mM sodium citrate, 100 mM sodium chloride, polysorbate 20 and 20% sucrose are prepared according to the usual technique, for subcutaneous administration. The administration volume per mouse is 0.1 ml. The VEGF Trap is administered once a day, on days 12, 15 and 18 after implantation of the tumor.
(§10) 0.3 ml per mouse is prepared, according to the usual technique, for intravenous administration, from a commercially available solution at 20 mg/ml of irinotecan to be diluted with 5% dextrose in water.
(§11) These solutions are administered simultaneously, after a suitable dilution.
(§12) The treatment with irinotecan is repeated twice a day, with a 4-hour interval, on days 12, 15 and 18 after implantation of the tumor.
(§13) Tumor doubling time=3.2 days.
(§14) Abbreviations used: (T-C) delay in growth of the tumor, Ick=log cell kill.

HCT116 human tumor = test: as above; format: in vivo
Protocol: as §1, §2, §3, §4, §5, §6, §7, §8, §9, §10, §11, §12, §13, §14

VEGF-A = biological target: T1, VEGF-A (Homo sapiens, UniProt P15692); conditions: in comparison with Avastin (bevacizumab); cited from earlier work
T1 sequence (P15692 207-395 limits assumed): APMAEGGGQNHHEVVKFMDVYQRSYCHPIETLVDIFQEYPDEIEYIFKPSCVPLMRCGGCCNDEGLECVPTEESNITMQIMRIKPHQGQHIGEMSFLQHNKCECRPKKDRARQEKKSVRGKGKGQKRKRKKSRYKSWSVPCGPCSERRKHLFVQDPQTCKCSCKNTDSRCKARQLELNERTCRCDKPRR

[2] = biological target: PIGF (placental growth factor) (Homo sapiens, UniProt P49763); conditions: cited from earlier work
Sequence of PIGF (placental growth factor) (P49763 19-221): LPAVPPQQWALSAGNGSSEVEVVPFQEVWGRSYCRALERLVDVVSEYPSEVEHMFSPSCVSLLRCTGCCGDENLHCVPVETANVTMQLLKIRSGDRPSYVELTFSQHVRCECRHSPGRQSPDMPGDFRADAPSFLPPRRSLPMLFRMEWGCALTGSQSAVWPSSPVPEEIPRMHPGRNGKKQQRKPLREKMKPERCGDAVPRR

VEGF-B = VEGF-B (Homo sapiens, UniProt P49765); conditions: cited from earlier work
Sequence of VEGF-B (P49765 22-207, species assumed): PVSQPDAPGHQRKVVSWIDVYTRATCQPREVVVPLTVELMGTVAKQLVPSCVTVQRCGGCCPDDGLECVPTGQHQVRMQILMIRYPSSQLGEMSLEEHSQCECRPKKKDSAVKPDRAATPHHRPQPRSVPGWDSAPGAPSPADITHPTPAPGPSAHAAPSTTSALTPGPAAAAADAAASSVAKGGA

[3] = CPT-11 alone, 12.5 mg/kg per injection i.v., 2x/d days 12, 15, 18, total 75.0 mg/kg, group 9
[4] = CPT-11 alone, 20.2 mg/kg per injection i.v., 2x/d days 12, 15, 18, total 121.2 mg/kg, group 8
[5] = CPT-11 alone, 32.5 mg/kg per injection i.v., 2x/d days 12, 15, 18, total 195.0 mg/kg, group 7
[6] = VEGF Trap alone, 2.5 mg/kg s.c. days 12, 15, 18, total 7.5 mg/kg, group 5
[7] = VEGF Trap alone, 10.0 mg/kg s.c. days 12, 15, 18, total 30.0 mg/kg, group 4
[8] = VEGF Trap alone, 25.0 mg/kg s.c. days 12, 15, 18, total 75.0 mg/kg, group 3
[9] = VEGF Trap alone, 40.0 mg/kg s.c. days 12, 15, 18, total 120.0 mg/kg, group 2

In the case of CCc1c2c(nc3ccc(OC(=O)N4CCC(N5CCCCC5)CC4)cc13)-c1cc3c(c(=O)n1C2)COC(=O)[C@]3(O)CC [CPT-11, irinotecan], the MTD [1] was 75 mg/kg, the “Average time for the tumor to reach 750 mg” value (“Average time for the tumor” below) (HCT116 human tumor; [3]) was 37.6 days and the “Comments (activity)” value (HCT116 human tumor; [3]) was “active”. The “Comments (dose level)” value (HCT116 human tumor; [3]) was “HNTD”, the “Death due to the product, with day of death” value (“Death due to the product” below) (HCT116 human tumor; [3]) was 0/8 and the Log cell kill (HCT116 human tumor; [3]) was 1.8. For the same compound, the “Survivors without tumor at day 144” value (HCT116 human tumor; [3]) was 0/8, the T-C (HCT116 human tumor; [3]) was 19.1 days and the “Weight loss of the mouse (date of low-point)” value (from here on “Weight loss of the mouse”) (HCT116 human tumor; CPT-11 alone, 12.5 mg/kg per injection i.v., 2x/d days 12, 15, 18, total 75.0 mg/kg, group 9, low-point day 21) was −15.9%. For the same compound, the Comments (HCT116 human tumor; [4]) was “Toxic”, the “Death due to the product” value (HCT116 human tumor; [4]) was 0/8 and the Comments (HCT116 human tumor; CPT-11 alone, 20.2 mg/kg per injection i.v., 2x/d days 12, 15, 18, total 121.2 mg/kg, group 8, listed as irinotecan) was “Toxicity was observed”. The “Weight loss of the mouse” value (HCT116 human tumor; CPT-11 alone, 20.2 mg/kg per injection i.v., 2x/d days 12, 15, 18, total 121.2 mg/kg, group 8, low-point day 19) was −21.9%, the “Weight loss of the mouse” value (HCT116 human tumor; CPT-11 alone, 20.2 mg/kg per injection i.v., 2x/d days 12, 15, 18, total 121.2 mg/kg, group 8, low-point day 19, listed as irinotecan) was “greater than 20%” and the Comments (HCT116 human tumor; [5]) was “Toxic”. For the same compound, the “Death due to the product” value (HCT116 human tumor; [5]) was 0/7, the Comments (HCT116 human tumor; CPT-11 alone, 32.5 mg/kg per injection i.v., 2x/d days 12, 15, 18, total 195.0 mg/kg, group 7, listed as irinotecan) was “Toxicity was observed” and the “Weight loss of the mouse” value (HCT116 human tumor; CPT-11 alone, 32.5 mg/kg per injection i.v., 2x/d days 12, 15, 18, total 195.0 mg/kg, group 7, low-point day 19) was −23.1%. For the same compound, the “Weight loss of the mouse” value (HCT116 human tumor; CPT-11 alone, 32.5 mg/kg per injection i.v., 2x/d days 12, 15, 18, total 195.0 mg/kg, group 7, low-point day 19, listed as irinotecan) was “greater than 20%”, the “Death due to the product” value (HCT116 human tumor; CPT-11 alone, 52.4 mg/kg per injection i.v., 2x/d (4 h apart) days 12, 15, 18, total 314.4 mg/kg, group 6, day of death 23) was 1/8 (23) and the “Death due to the product” value (HCT116 human tumor; CPT-11 alone, 52.4 mg/kg per injection i.v., 2x/d (4 h apart) days 12, 15, 18, total 314.4 mg/kg, group 6, day of death 23, listed as irinotecan) was “a death”. For the same compound, the Comments (HCT116 human tumor; CPT-11 alone, 52.4 mg/kg per injection i.v., 2x/d days 12, 15, 18, total 314.4 mg/kg, group 6) was “Toxic”, the Comments (HCT116 human tumor; CPT-11 alone, 52.4 mg/kg per injection i.v., 2x/d days 12, 15, 18, total 314.4 mg/kg, group 6, listed as irinotecan) was “Toxicity was observed” and the “Weight loss of the mouse” value (HCT116 human tumor; CPT-11 alone, 52.4 mg/kg per injection i.v., 2x/d days 12, 15, 18, total 314.4 mg/kg, group 6, low-point day 21) was −27.0%. The maximum tolerated dose (HCT116 human tumor; irinotecan alone, i.v. twice a day on days 12, 15, 18) was 12.5 mg/kg/inj.

In the case of “VEGF Trap: fusion protein: D2 Ig domain of VEGFR1 fused to D3 Ig domain of VEGFR2, fused to the Fc domain of IgG1”, the “affinity for VEGF-A compared with Avastin” value (VEGF-A) is listed as “much higher affinity”, the “binding to PIGF (selectivity profile)” value [2] is listed as “also binds” and the “Average time for the tumor” value (HCT116 human tumor; [6]) is listed as 20.2 days. The “Comments (activity)” value (HCT116 human tumor; [6]) was “inactive”, the “Death due to the product” value (HCT116 human tumor; [6]) was 0/8 and the Log cell kill (HCT116 human tumor; [6]) was 0.2. The “Survivors without tumor at day 144” value (HCT116 human tumor; [6]) was 0/8, the T-C (HCT116 human tumor; [6]) was 1.7 days and the “Weight loss of the mouse” value (HCT116 human tumor; VEGF Trap alone, 2.5 mg/kg s.c. days 12, 15, 18, total 7.5 mg/kg, group 5, low-point day 19) was −8.3 (19) %. The “Average time for the tumor” value (HCT116 human tumor; [7]) was 32.0 days, the “Comments (activity)” value (HCT116 human tumor; [7]) was “active” and the “Death due to the product” value (HCT116 human tumor; [7]) was 0/8. For the same compound, the Log cell kill (HCT116 human tumor; [7]) was 1.3, the “Survivors without tumor at day 144” value (HCT116 human tumor; [7]) was 1/8 and the T-C (HCT116 human tumor; [7]) was 13.5 days. The “Weight loss of the mouse” value (HCT116 human tumor; VEGF Trap alone, 10.0 mg/kg s.c. days 12, 15, 18, total 30.0 mg/kg, group 4, low-point day 19) was −5.0 (19) %, the “Average time for the tumor” value (HCT116 human tumor; [8]) was 36.8 days and the “Comments (activity)” value (HCT116 human tumor; [8]) was “active”. The “Death due to the product” value (HCT116 human tumor; [8]) was 0/8, the Log cell kill (HCT116 human tumor; [8]) was 1.7 and the “Survivors without tumor at day 144” value (HCT116 human tumor; [8]) was 0/8. The T-C (HCT116 human tumor; [8]) was 18.3 days, the “Weight loss of the mouse” value (HCT116 human tumor; VEGF Trap alone, 25.0 mg/kg s.c. days 12, 15, 18, total 75.0 mg/kg, group 3, low-point day 13) was −2.2 (13) % and the “Average time for the tumor” value (HCT116 human tumor; [9]) was 36.8 days. For the same compound, the “Death due to the product” value (HCT116 human tumor; [9]) was 0/8, the Log cell kill (HCT116 human tumor; [9]) was 1.7 and the “Survivors without tumor at day 144” value (HCT116 human tumor; [9]) was 0/8. For the same compound, the T-C (HCT116 human tumor; [9]) was 18.3 days, the “Comments (activity)” value (HCT116 human tumor; VEGF Trap alone, 40.0 mg/kg s.c. days 12, 15, 18, total 120.0 mg/kg, group 2 (HDT)) was “active” and the “Weight loss of the mouse” value (HCT116 human tumor; VEGF Trap alone, 40.0 mg/kg s.c. days 12, 15, 18, total 120.0 mg/kg, group 2, low-point day 13) was −3.1 (13) %. The tolerability (HCT116 human tumor; VEGF Trap alone, all the dosages tested (2.5 to 40 mg/kg/administration s.c.)) was “well-tolerated” and the “binding to VEGF-B (selectivity profile)” value (VEGF-B) was “also binds”.
